In brackets after ≈: the same amount, converted by molar mass.

For orientation: MIC means the smallest concentration in the dilution series that meets the test's criterion for growth inhibition. Broadly, the ED50 is the dose that gives a 50% effect, or the effect in half of the subjects.

The subject of test [1] is S. aureus Col (Meth^R) (lac^-). The test is described as follows: MIC by agar dilution, S. aureus Col (Meth^R) (lac^-). Type of test: cell-based. The settings on record: Staphylococcus aureus; agar dilution; S. aureus Col (Meth^R) (lac^-); read-out: MIC. The protocol:
The compounds of the invention were evaluated against several β-lactamresistant bacteria strains by determining the minimum inhibitory concentration (MIC, μg/ml) of each compound with respect to each strain. The MIC, the lowest concentration of antibiotic which inhibits growth of the test organism, was determined by the agar dilution method.
To determine the MIC for bacterial isolates, the test compound was incorporated in a series of two-fold dilutions into liquified Mueller-Hinton agar. Upon solidification, a number of different bacterial strains were spot inoculated with a replicating device onto the agar surface. […] The procedures used in these studies have been standardized by the National Committee for Clinical Laboratory Standards (NCCLS), as per the NCCLS publication entitled METHODS FOR DILUTION ANTIMICROBIAL SUSCEPTIBILITY TESTS (1991), which is incorporated herein by reference.
Aliquots of antimicrobial agents were prepared in phosphate buffered saline (PBS) at pH 7.2. Tween 20 or DMSO was used as a solubilizing vehicle as needed. Standard methods of vortexing, sonicating and gentle heat were used to facilitate solubilizing the test agent. Typically, the concentration of the stock solution was 10× that of the highest drug concentration tested. A 1.28 mg/mL stock solution was used with a subsequent highest working concentration of 128 μg/mL. Serial two-fold dilutions were done through ≤0.25 μg/mL. Each drug level was tested in duplicate. Two-fold drug dilutions were done in sterile 50 mL tubes with a final drug volume of 5 mL. Upon the addition of 45 mL of molten agar, a 10-fold dilution resulted. Two, 25 mL. plates were then poured into 15×150 mm square Petri plates with grids and allowed to harden.
A control plate with a reference drug, either cefotaxime, vancomycin or imipenem, was used as the positive growth control. Stock concentrations of reference antibiotics were prepared and frozen at -80° C. Upon preparation, the control plates were sealed and stored in the refrigerator for up to 1 week prior to use; however, imipenem control plates had to be prepared just prior to use. All test plates were used within 24 hours of preparation.
Satisfactory results were obtained where the inoculum contained about 10^4 colony forming units (cfu) ±0.5 logs. Starting with pure cultures of the test isolates on agar plates, a few isolated colonies were transferred to a tube of nutrient broth and allowed to grow 4-6 hours at 35°-36° C. to reach log-phase growth. Dropwise addition of the broth culture to PBS was done to match a 0.5 McFarland turbidity standard equal to 10^8 cfu/mL. This was further diluted ten-fold in PBS to reach a working inoculum concentration of 10^7 cfu/mL. When 1 μL of the working inoculum was applied to the agar surface a concentration of about 10^4 cfu per spot was obtained.
Disposable sterile 1 μL loops were used to inoculate test plates, with each isolate in a designated grid on the agar plate. An alternate method of inoculation involved the use of a replica plater, a device with 48 steel pins allowing the simultaneous inoculation of multiple isolates. After the spots had dried, the plates were incubated at 35°-36° C. for 16-20 hours. Endpoints were assessed as the minimum inhibitory concentration (MIC) of antimicrobial agent.
The novel agents of this invention are notable for their enhanced activity against S. aureus Col and Enterococci (E. faecium and E. faecalis). The S. aureus Col strain is a high-level PBP2a producer, whereas S. aureus Col 8A, its isogenic partner, lacks PBP2a. […] Thus, the compounds of the present invention are effective against PBP2a-producing bacteria.
On the technique in general: In agar dilution, organisms are placed on agar that contains the substance at set levels.

The subject of test [2] is methicillin-susceptible S. aureus strain ATCC 13709. The test is described as follows: murine model for lethal bacteremic peritonitis. Type of test: in vivo, female Swiss-Webster mice. The settings on record: subcutaneous, 72 h. The protocol:
Groups of 5 female Swiss-Webster mice (Simonsen, Gilroy, Calif.) each are challenged by the intraperitoneal (IP) route with tenfold increments of a bacterial inoculum. This permits calculation of the mean lethal dose (LD50) and the LD100. For preliminary evaluation of a new antibiotic, mice are challenged IP with an LD100 titer of bacteria. In two equal doses administered at the time of bacterial challenge and 2 hours later, groups of 10 mice each are treated subcutaneously with two-fold increments of the test drug and an antibiotic of known efficacy in mice and humans (i.e., positive control). Mice are observed for 72 h. Those alive at 72 h are considered long term survivors. The total drug dose in mg/kg that protects 50% of mice in a group from death is termed the mean protective dose (PD50). PD50 s are similarly determined for several pathogens. The quantitative endpoints for the new drug are then compared with those obtained with reference antibiotics.
Six ten-fold dilutions of inoculum suspended in 0.5 mL of sterilized 7% hog gastric mucin (Sigma) are injected IP in groups of 5 mice each. A control group of 5 mice receive mucin alone. Mice are observed for 72 h. Those alive at 72 h are considered long term survivors. The mean lethal dose (LD50) and 100% lethal dose (LD100) are determined by the probit test.
For antibiotic efficacy studies, mice are challenged IP with bacterial titers that will afford an LD100 for the test strain. In two equal doses administered at the time of bacterial challenge and 2 hours later, groups of 10 mice each are treated by the subcutaneous route (SC) with twofold increments of the test antibiotic; another group is treated similarly with a reference antibiotic of known efficacy in animals and man. Drug doses can range from 0.01 to 512 mg/kg. If the drug is poorly soluble, Tween 20 or propylene glycol will be employed to solubilize the drug. Animals are observed for 72 h. The 50% protective dose (PD50) is calculated in mg/kg by the probit method. The PD50 is the same as the 50% effective dose (ED50) and the 50% curative dose (CD50). Samples of blood from the hearts of all animals that die and from half the mice that survive are cultured on brain-heart infusion agar. Animals that received a protective dosage of the test drug will be alive at 72 h, although they may appear moderately ill to very ill during the observation period. […] Most of these mice will die within 6 to 48 h. Those alive at 72 h will be considered long term survivors.
(Compound numbers correspond to those in MIC tables; data
reported for challenge with methicillin-susceptible S. aureus

Consider `O=C(Cc1ccccc1)N[C@@H]1C(=O)N2C(C(=O)O)=C(Sc3ccc(F)cc3)CS[C@H]12` [Cmpd 1, (7R)-7-[(Phenylacetyl)amino]-3-(p-fluorophenylthio)-3-cephem-4-carboxylic acid], for which the MIC in test [1] amounted to 16 µg/mL (≈ 36 µM). As for `O=C(Cc1ccccc1)N[C@@H]1C(=O)N2C(C(=O)O)=C(Sc3cccc(I)c3)CS[C@H]12` [Cmpd 2, (7R)-7-[(Phenylacetyl)amino]-3-(m-iodophenylthio)-3-cephem-4-carboxylic acid], in test [1], the minimum inhibitory concentration (MIC) was 2 µg/mL (≈ 3.62 µM). On the same count and under the same terms, to `O=C(Cc1ccccc1)N[C@@H]1C(=O)N2C(C(=O)O)=C(Sc3ccc(Cl)cc3)CS[C@H]12` [Cmpd 3, (7R)-7-[(Phenylacetyl)amino]-3-(p-chlorophenylthio)-3-cephem-4-carboxylic acid] belongs 2 µg/mL (≈ 4.34 µM); to `O=C(Cc1ccccc1)N[C@@H]1C(=O)N2C(C(=O)O)=C(Sc3ccccc3Br)CS[C@H]12` [Cmpd 4, (7R)-7-[(Phenylacetyl)amino]-3-(o-bromophenylthio)-3-cephem-4-carboxylic acid], 1 to 2 µg/mL (≈ 1.98 to 3.96 µM).

As for `O=C(Cc1ccccc1)N[C@@H]1C(=O)N2C(C(=O)O)=C(Sc3ccc(Br)cc3)CS[C@H]12` [Cmpd 5, (7R)-7-[(Phenylacetyl)amino]-3-(p-bromophenylthio)-3-cephem-4-carboxylic acid], in test [1], the MIC stood at 2 µg/mL (≈ 3.96 µM).

As for `O=C(Cc1ccccc1)N[C@@H]1C(=O)N2C(C(=O)O)=C(Sc3ccc4c(c3)oc3ccccc34)CS[C@H]12` [Cmpd 7, (7R)-7-[(Phenylacetyl)amino]-3-(dibenzofuranyl-3-thio)-3-cephem-4-carboxylic acid], the MIC in test [1] is 4 µg/mL (≈ 7.74 µM).

For the compound `O=C(Cc1ccccc1)N[C@@H]1C(=O)N2C(C(=O)O)=C(Sc3ccc(-c4ccccc4)cc3)CS[C@H]12` [Cmpd 8, (7R)-7-[(Phenylacetyl)amino]-3-(4-biphenylthio)-3-cephem-4-carboxylic acid], the minimum inhibitory concentration (MIC) in test [1] is 4 µg/mL (≈ 7.96 µM). As for `O=C(Cc1ccccc1)N[C@@H]1C(=O)N2C(C(=O)O)=C(Sc3cccc(-c4ccccc4)c3)CS[C@H]12` [Cmpd 10, (7R)-7-[(Phenylacetyl)amino]-3-(3-biphenylthio)-3-cephem-4-carboxylic acid], in test [1], the MIC was determined as 8 µg/mL (≈ 15.9 µM). Turning to `O=C(Cc1ccccc1)N[C@@H]1C(=O)N2C(C(=O)O)=C(Sc3ccc(-c4ccccc4)cc3Br)CS[C@H]12` [Cmpd 11, (7R)-7-[(Phenylacetyl)amino]-3-(2-bromo-4-biphenylthio)-3-cephem-4-carboxylic acid], in test [1], the MIC stood at 1 µg/mL (≈ 1.72 µM).

With `O=C(Cc1ccccc1)N[C@@H]1C(=O)N2C(C(=O)O)=C(Sc3ccc(-c4ccccc4)cc3F)CS[C@H]12` [Cmpd 13, (7R)-7-[(Phenylacetyl)amino]-3-(2-fluoro-4-biphenylthio)-3-cephem-4-carboxylic acid], in test [1], the MIC is 4 µg/mL (≈ 7.68 µM). Take `O=C(Cc1ccccc1)N[C@@H]1C(=O)N2C(C(=O)O)=C(Sc3cc(Cl)ccc3Cl)CS[C@H]12` [Cmpd 16, (7R)-7-[(Phenylacetyl)amino]-3-(2,5-dichlorophenylthio)-3-cephem-4-carboxylic acid]: in test [1], the MIC was under 0.5 µg/mL.

Turning to `O=C(Cc1ccccc1)N[C@@H]1C(=O)N2C(C(=O)O)=C(Sc3ccc(Cl)c(Cl)c3)CS[C@H]12` [Cmpd 18, (7R)-7-[(Phenylacetyl)amino]-3-(3,4-dichlorophenylthio)-3-cephem-4-carboxylic acid], in test [1], the MIC is 4 µg/mL (≈ 8.07 µM). For the compound `COC(=O)c1ccccc1SC1=C(C(=O)O)N2C(=O)[C@@H](NC(=O)Cc3ccccc3)[C@H]2SC1` [Cmpd 19, (7R)-7-[(Phenylacetyl)amino]-3-(o-carbomethoxyphenylthio)-3-cephem-4-carboxylic acid], the MIC in test [1] turned out to be 4 µg/mL (≈ 8.25 µM). Still for that read-out and setting: as for `O=C(Cc1cccs1)N[C@@H]1C(=O)N2C(C(=O)O)=C(Sc3ccccc3Br)CS[C@H]12` [Cmpd 20, (7R)-7-[(2-Thienylacetyl)amino]-3-(o-bromophenylthio)-3-cephem-4-carboxylic acid], the figure is 0.5 µg/mL (≈ 0.978 µM); as for `O=C(Cc1ccccc1)N[C@@H]1C(=O)N2C(C(=O)O)=C(Sc3cccc4oc5ccccc5c34)CS[C@H]12` [Cmpd 21, (7R)-7-[(Phenylacetyl)amino]-3-(dibenzofuranyl-1-thio)-3-cephem-4-carboxylic acid], 1 µg/mL (≈ 1.94 µM); as for `Nc1nc(/C(=N/O)C(=O)N[C@@H]2C(=O)N3C(C(=O)O)=C(Sc4ccccc4I)CS[C@H]23)cs1` [Cmpd 22, (7R)-7-[(Z)-2-(aminothiazol-4-yl)-2-(hydroxyimino)acetamido]-3-(o-iodophenylthio)-3-cephem-4-carboxylic acid], 2 µg/mL (≈ 3.31 µM). Turning to `N#Cc1ccc(-c2ccccc2SC2=C(C(=O)O)N3C(=O)[C@@H](NC(=O)Cc4ccccc4)[C@H]3SC2)cc1` [Cmpd 23, (7R)-7-[(Phenylacetyl)amino]-3-(2-(4-cyanophenyl)phenylthio)-3-cephem-4-carboxylic acid], the MIC in test [1] was 2 µg/mL (≈ 3.79 µM). For the compound `O=C(Cc1ccccc1)N[C@@H]1C(=O)N2C(C(=O)O)=C(Sc3cccc(Cl)c3Cl)CS[C@H]12` [Cmpd 24, (7R)-7-[(Phenylacetyl)amino]-3-(2,3-dichlorophenylthio)-3-cephem-4-carboxylic acid], the MIC in test [1] was found to be 1 µg/mL (≈ 2.02 µM). As for `CN[C@H](CC(C)C)C(=O)N[C@H]1C(=O)N[C@@H](CC(N)=O)C(=O)N[C@H]2C(=O)N[C@H]3C(=O)N[C@H](C(=O)N[C@H](C(=O)O)c4cc(O)cc(O)c4-c4cc3ccc4O)[C@H](O)c3ccc(c(Cl)c3)Oc3cc2cc(c3O[C@@H]2O[C@H](CO)[C@@H](O)[C@H](O)[C@H]2O[C@H]2C[C@](C)(N)[C@H](O)[C@H](C)O2)Oc2ccc(cc2Cl)[C@H]1O` [Vancomycin, reference compound], the Mortality in test [2] (dose 0.625 mg/kg) was 8/10; in test [2] (dose 1.25 mg/kg), 6/10; in test [2] (dose 2 mg/kg) it was 8/10; in test [2] (dose 2.5 mg/kg), 5/10; in test [2] (dose 4 mg/kg), 2/10; in test [2] (dose 5 mg/kg) it was 5/10. Also, the Mortality in test [2] (dose 8 mg/kg) is given as 0/10; in test [2] (dose 10 mg/kg), 2/10; in test [2] (dose 16 mg/kg), 0/10. In addition, the ED50 in test [2] (two equal doses, S. aureus ATCC 13709 IP challenge, 4320 min) was determined as 2.79 mg/kg.

The values above are taken from US5698547A, “Cephalosporin antibiotics” (Microcide Pharmaceuticals, Inc., priority 1995, dated 1997).
